Data published in paper PMC6584114, “Metabolism of IMM-H004 and Its Pharmacokinetic-Pharmacodynamic Analysis in Cerebral Ischemia/Reperfusion Injured Rats” (Frontiers in Pharmacology, 2019).

Tests used:
[1] = test system: human liver microsomes (HLMs), UGT; assay: Kinetics of IMM-H004G formation (glucuronidation) in UDPGA-supplemented human liver microsomes; assay type: in vitro ADME; details: substrate IMM-H004
Experimental: To explore glucuronidation difference of IMM-H004 between humans and rats, the kinetics of IMM-H004G formation in UDPGA-supplemented HLMs and RLMs were determined. The incubation mixtures consisted of HLMs or RLMs (0.025 mg protein/ml), alamethicin (50 μg/mg protein), IMM-H004 (0.5–2,500 μM), and UDPGA (5 mM) in a final volume of 0.2 ml Tris-HCl buffer (50 mM, pH 7.4) containing 5 mM MgCl2. HLM or RLM was preincubated with alamethicin on ice for 15 min. The reaction was incubated at 37°C for 10 min and quenched by adding 200 μL of ice-cold acetonitrile containing IS (100 ng/ml). After vortex-mixing and centrifugation, IMM-H004G in the supernatant was analyzed by LC-MS/MS.
The LC-MS/MS system consisted of Shimadzu 30A UPLC and API 4000 triple quadruple mass spectrometer (AB SCIEX, USA). Data acquisition and analysis were accomplished using Analyst 1.5.2 software. The analytes and IS were chromatographed by injection of 1 μL sample. The mobile phases consisted of solvent A (0.5% formic acid in water) and solvent B (0.5% formic acid in methanol) at a flow rate of 0.3 ml/min on an Eclipse Plus C18 column (2.1 mm × 50 mm, 3.5 μm, Agilent, USA), and the operating temperature was 40°C. […] The specific transitions monitored were 305→248 for IMM-H004, 291→234 for M1, 291→248 for M2, 481→305 for IMM-H004G, 385→305 for M4, and 260→183 for IS.

[2] = Excretion in rat urine, bile and feces after iv IMM-H004 citrate; assay type: in vivo; details: iv IMM-H004 citrate 6 mg/kg
Experimental: After intravenous (iv) injection with IMM-H004 citrate (6 mg/kg, dissolved in saline to yield a concentration of 1.2 mg/ml), rats were housed individually in metabolic cages to allow separate collection of urine and feces until 72 h postdose. Additional rats were bile cannulated under light ether anesthesia. Each rat was housed individually in a metabolic cage and allowed to recover from anesthesia for 2 to 3 h. Then bile duct cannulated rats were iv injected with IMM-H004 citrate (6 mg/kg, dissolved in saline to yield a concentration of 1.2 mg/ml), bile samples were collected until 24 h postdose.
Feces samples were homogenized in 10-fold solvent of water and methanol (1:1) and diluted 10-fold in water. Bile and urine samples were diluted 100-fold in water. The concentrations of IMM-H004, M1, M2, and IMM-H004G in diluted bile, urine, and feces samples were determined by LC-MS/MS.
The LC-MS/MS system consisted of Shimadzu 30A UPLC and API 4000 triple quadruple mass spectrometer (AB SCIEX, USA). Data acquisition and analysis were accomplished using Analyst 1.5.2 software. The analytes and IS were chromatographed by injection of 1 μL sample. The mobile phases consisted of solvent A (0.5% formic acid in water) and solvent B (0.5% formic acid in methanol) at a flow rate of 0.3 ml/min on an Eclipse Plus C18 column (2.1 mm × 50 mm, 3.5 μm, Agilent, USA), and the operating temperature was 40°C. The elution condition was 10% solvent B for 0.7 min, ascending to 98% B in 2.3 min, holding for 3.0 min and reequilibrating to 10% B within 0.1 min and maintained for 2.4 min (Jiang JW, 2018). The specific transitions monitored were 305→248 for IMM-H004, 291→234 for M1, 291→248 for M2, 481→305 for IMM-H004G, 385→305 for M4, and 260→183 for IS.

[3] = test system: plasma malondialdehyde (MDA); assay: Plasma MDA suppression (PD) in MCAO/R rats; assay type: in vivo, rat; details: iv IMM-H004 citrate 10 mg/kg after reperfusion
Experimental: The plasma pharmacokinetics (PK) and pharmacodynamics (PD) of IMM-H004 and IMM-H004G were investigated in a cerebral ischemia-reperfusion rat model produced by middle cerebral artery occlusion/reperfusion (MCAO/R) after iv administration of IMM-H004. In brief, rats underwent a 1-h MCAO and then received IMM-H004 citrate (10 mg/kg, dissolved in saline to yield a concentration of 2 mg/ml) immediately after reperfusion, an effective dosing time as reported ([Zuo et al., 2015]; [Yang et al., 2017]). For sham surgery, all the arteries were exposed for the surgical period, but the filament was not inserted into the MCA. Blood samples were collected through external jugular vein cannula into heparinized tubes at 0.033, 0.167, 0.5, 1, 2, 4, 6, 8, 12, 24, 36, and 48 h postdose for IMM-H004 and IMM-H004G detection (50 μL of blood at each time point) and at 0.5, 1, 2, 4, 7, and 10 h postdose for malondialdehyde (MDA) detection (80 μL of blood at each time point). Plasma was immediately separated by centrifugation at 900×g for 5 min. Plasma concentrations of IMM-H004 and IMM-H004G in ischemia-reperfusion rats were determined by LC-MS/MS analysis. The PK parameters were calculated by noncompartmental analysis using WinNonlin Version 6.1 (Pharsight, Mountain View, CA). Plasma MDA concentrations in ischemia-reperfusion and sham rats within 24 h were estimated by enzyme-linked immunosorbent assay.

[4] = test system: MCAO/R rats; assay: Neuroprotection in transient MCAO/R rats (infarct volume, neurological score); assay type: in vivo, rat; details: 10 mg/kg iv after reperfusion, 24 h, vs model
Excerpt: Transient MCAO/R was applied to compare the neuroprotection of IMM-H004 and IMM-H004G. Rats were fasted overnight with free access to water and randomly assigned to different groups. Rats were anesthetized with a mixture of 5% isoflurane and 95% oxygen and maintained with a mixture of 3% isoflurane and 97% oxygen during the surgical procedure. A 4-0 nylon thread, the tip of which was burned (diameter 0.36 mm), was inserted into the right internal carotid artery and advanced until the origin of the right MCA was occluded. After 60 min of the occlusion, the thread was withdrawn to allow reperfusion, and then the rats were returned to the chamber. Saline or edaravone at dose of 6 mg/kg or IMM-H004 citrate and IMM-H004G at dose of 10 mg/kg (dissolved in saline to yield a concentration of 2 mg/ml) were administered by intravenous injection immediately after reperfusion.
The rats were assessed for neurologic deficits at 24 h after reperfusion according to Zea Longa’s five-point scale. […] The animals without symptoms of neurological impairment or dying after the surgery were rejected. All animals were killed 24 h after reperfusion. Brains of the animals were removed and cut into 2 mm-thick slices, for a total of six slices per animal. The slices were immersed in a 2% solution of 2,3,5-triphenyltetrazolium chloride in phosphate buffered saline at 37°C for 20 min and then fixed in 4% formaldehyde overnight. Images of the slices were obtained with a scanner and a computer. The infarct area and the total area were calculated by tracing the areas on the computer screen with Image J. The percentage of the infarct volume was expressed as the infarct volumes (white parts)/the whole volume of the cortex.

[5] = design: method as in Zhang et al., 2017; details: rat plasma and brain, 6 mg/kg; ref Zhang et al., 2017; cited from earlier work
[6] = design: method as in Jiang et al., 2018; details: rat brain; ref Jiang et al., 2018; cited from earlier work

- recovery of IMM-H004G and IMM-H004 in bile ([2]; bile duct cannulated rats, until 24 h): 76.1 % of intake
- IMM-H004 in fecal specimens ([2]; rat feces, until 72 h): 18 % of the dose
SMILES: COc1cc(O)cc2oc(=O)c(N3CCN(C)CC3)c(C)c12 [IMM-H004, 7-hydroxy-5-methoxy-4-methyl-3-(4-methylpiperazin-1-yl)-coumarin]
- K m of IMM-H004G formation (glucuronidation) [1]: 119.3 µM
- V max of IMM-H004G formation (glucuronidation) [1]: 3.25 nmol/min/mg protein
- duration of plasma MDA lowering after administration [3]: at least 10 h
- effect on plasma MDA level ([3]; vs MCAO/R group): significantly lower the increased MDA level at 2 h
- infarct volume [4]: markedly reduced (p < 0.01)
- neurological test score [4]: significant improvement (p < 0.01)
- elimination half-life (t 1/2β) [5]: 11.4 min
- T max (crossing the blood–brain barrier) [6]: 12.6 min
